Data from US7625912B2, “Mitotic kinesin inhibitors” (Merck & Co. Inc, priority 2003, dated 2009).

Target: T1, human KSP motor domain (KSP(367H)) (Homo sapiens, UniProt P52732)
T1 construct: were used to amplify the motor domain and the neck linker region; made in house; host or cells: E. coli BL21 (DE3), pRSETa vector
T1 sequence (P52732 18-359 limits assumed): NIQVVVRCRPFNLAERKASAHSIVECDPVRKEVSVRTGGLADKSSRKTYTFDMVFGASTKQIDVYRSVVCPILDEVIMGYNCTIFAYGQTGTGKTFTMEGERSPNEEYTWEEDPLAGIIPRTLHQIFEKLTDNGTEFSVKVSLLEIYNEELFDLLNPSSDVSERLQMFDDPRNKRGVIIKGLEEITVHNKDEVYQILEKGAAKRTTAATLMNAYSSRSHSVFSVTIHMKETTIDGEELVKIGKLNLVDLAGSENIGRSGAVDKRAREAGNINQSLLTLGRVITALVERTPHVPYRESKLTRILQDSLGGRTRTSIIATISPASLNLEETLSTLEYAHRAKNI
Test: Kinesin ATPase in vitro assay
Assay type: biochemical
Details: microtubules, 1 mM ATP, 23° C.; free phosphate by quinaldine red/ammonium molybdate, absorbance 540 nm
Text: I. Kinesin ATPase In Vitro Assay
Cloning and Expression of Human Poly-Histidine Tagged KSP Motor Domain (KSP(367H))
Plasmids for the expression of the human KSP motor domain construct were cloned by PCR using a pBluescript full length human KSP construct (Blangy et al., Cell, vol. 83, pp 1159-1169, 1995) as a template. The N-terminal primer 5′-[…] (SEQ.ID.NO.: 1) and the C-terminal primer 5′-[…] […] (SEQ.ID.NO.: 2) were used to amplify the motor domain and the neck linker region. The PCR products were digested with AseI and XhoI, ligated into the NdeL/XhoI digestion product of pRSETa (Invitrogen) and transformed into E. coli BL21 (DE3).
Cells were grown at 37° C. to an OD600 of 0.5. […]
The kinesin motor domain is incubated with microtubules, 1 mM ATP (1:1 MgCl2: Na-ATP), and compound at 23° C. in buffer containing 80 mM K-HEPES (pH 7.0), 1 mM EGTA, 1 mM DTT, 1 mM MgCl2, and 50 mM KCl. […] Free phosphate from the ATP hydrolysis reaction is measured via a quinaldine red/ammonium molybdate assay by adding 150 μl of quench C buffer containing a 2:1 ratio of quench A:quench B. Quench A contains 0.1 mg/ml quinaldine red and 0.14% polyvinyl alcohol; quench B contains 12.3 mM ammonium molybdate tetrahydrate in 1.15 M sulfuric acid. The reaction is incubated for 10 minutes at 23° C., and the absorbance of the phospho-molybdate complex is measured at 540 nm.

IC50: ≤ 50 µM
Compound: Cc1ccc(-n2c(-c3ccccc3Br)nccc2=O)cc1F [1-4, 2-(2-bromophenyl)-3-(3-fluoro-4-methylphenyl)pyrimidin-4(3H)-one]
